Assay [1] is described as follows: 9-month treatment with DHEA and/or EM-800 in the rat: urinary and serum markers of bone metabolism. In kind it is in vivo. The text has this: It is particularly important to indicate that the combination of DHEA and EM-800 exerted unexpected beneficial effects on important biochemical parameters of bone metabolism. […] Moreover, no effect of DHEA could be detected on daily urinary calcium or phosphorus excretion (Luo et al., 1997). EM-800 decreased the urinary hydroxyproline/creatinine ratio by 48% while, similarly to DHEA, no effect of EM-800 was seen on urinary calcium or phosphorus excretion. EM-800, moreover, had no effect on serum alkaline phosphatase activity, a marker of bone formation while DHEA increased the value of the parameter by about 75% (Luo et al., 1997).

For assay [2], the system named is ZR-75-1 human breast cancer xenografts. The experiment in a line: Growth and response of human ZR-75-1 breast tumors in OVX nude mice, 7 antiestrogens for 161 days with or without estrone (Example 8). In kind it is in vivo. The essentials:
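ZR-75-1 xenografts were grown in ovariectomized nude mice, with estrone implants removed in the OVX control and antiestrogen-alone groups. Antiestrogens were given as suspensions for 161 days. Tumor area came from two perpendicular diameters, and response was assessed at study end using mice surviving at least 84 days.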

In assay [3] the test system is MCF-7 human breast cancer cells. As to the kind of experiment: Proliferation (DNA content) of human breast cancer MCF-7 cells (Example 7). Particulars: for pIC50: Homo sapiens, read-out: Inhibition of 1 nM E2 stimulation of DNA by tested compounds IC50. In kind it is cell-based. An excerpt:
MCF-7 human breast cancer cells were obtained from the American Type Culture Collection #HTB 22 at passage 147 and routinely grown in phenol red-free Dulbecco's Modified Eagle's-Ham's F12 medium, the supplements mentioned above and 5% FBS. The MCF-7 human breast adenocarcinoma cell line was derived from the pleural effusion of a patient. MCF-7 cells were used between passages 148 and 165 and subcultured weekly
Thereafter, medium was replaced with fresh medium containing the indicated concentrations of compounds diluted from 1000×stock solutions in 99% redistilled ethanol in the presence or absence of E2. Control cells received only the ethanolic vehicle (0.1% EtOH, v/v). Cells were incubated for the specified time intervals with medium changes at 2- or 3-day intervals. Cell number was determined by measurement of DNA content.
All results are expressed as means±SEM.

For assay [4], the system named is ZR-75-1 human breast cancer xenografts. The experiment in a line: Tamoxifen and EM-652.HCl alone or combined on growth of ZR-75-1 xenografts in nude mice (FIG. 7). It counts as in vivo. The following applies: hydrochloride.
Setting [5] is: DHEA 10 mg, EM-800 75 μg, alone or combined.
[6] abbreviates: estrone-supplemented, 50 μg daily, 161 days.

pIC50: −log10 of the molar value. Entries after “also recorded” stand apart in the source; their conditions may differ. Read-outs that look alike come from different tables or passages of the source.

On to `C[C@]12CC[C@H](O)CC1=CC[C@@H]1[C@@H]2CC[C@]2(C)C(=O)CC[C@@H]12` [DHEA, dehydroepiandrosterone], for which, in assay [1], the “decrease of urinary hydroxyproline/creatinine ratio (marker of bone resorption)” value is given as “did not affect; also recorded: did not show any effect”, the “effect on daily urinary calcium or phosphorus excretion” value was “no effect” and the “increase of serum alkaline phosphatase activity (marker of bone formation)” value is reported as “about 75%”. Besides, in assay [1] (setting [5]), the “Serum tALP” value worked out at 198.38 ± 30.76 IU/L, the “Urine HP/Cr” value is 14.02 ± 1.59 μmol/mmol, the Urine calcium is listed as 25.87 ± 3.54 μmol/24 h/100 g and the Urine phosphorus was 151.41 ± 14.57 μmol/24 h/100 g.
For orientation: pIC50 means the negative decadic logarithm of the IC50, by convention in mol/L. As for `CC1=C(c2ccc(O)cc2)[C@H](c2ccc(OCCN3CCCCC3)cc2)Oc2cc(O)ccc21.Cl` [EM-652.HCl, (S)-(+)-7-hydroxy-3-(4′-hydroxyphenyl)-4-methyl-2-(4″-(2′″-piperidinoethoxy)phenyl)-2H-1-benzopyran hydrochloride], the “increase of average tumor size over baseline (agonistic effect)” value in assay [2] (absence of estrone, 200 μg daily, 161 days) is “did not significantly change”. The “tumor size lower than the initial value at start of treatment” value in assay [2] (estrone-stimulated, 50 μg oral daily, 23 weeks) is 26%. Moreover, in assay [2] (setting [6]), the “complete response, % of tumors” value came out at 17%; the “partial response, % of tumors” value was found to be 17%; the “progressing tumors, % of tumors” value turned out to be 7%; the “stable response, % of tumors” value was 60%. Besides, the negative-log IC50 (pIC50) in assay [3] (MCF7, MCF-7, Experiment 1) is 9.10. Further, the pIC50 in assay [3] (MCF7, MCF-7, Experiment 2) is 9.69. Further, the “Maximal stimulation of DNA by tested compounds % of 1 nM E2 stimulation” value in assay [3] (MCF-7, Experiment 1) is reported as “N.S”. Further, in assay [3] (MCF-7, Experiment 2), the “Stimulation of DNA by tested compounds % of 1 nM E2 stimulation” value was “N.S”. The “effect on growth of ZR-75-1 xenografts” value in assay [4] was “did not exert any stimulatory effect; also recorded: no effect on tumor growth”.

Values taken from patent US11452731B2, “Method of treating and preventing loss of cognition” (ENDORECHERCHE, INC., priority 2009, dated 2022).
